Measured values reported in patent US20060121499A1, “Methods of identifying glucocorticoids without the detrimental side effects of bone loss” (priority 2004, published 2006).
Starred links: 1 amine or outer side, 2 acyl side, 3 side chain; linkers in the order of their positions; H or OH if unused. Positions of bridges follow the written chain, without caps; N, C: chain ends. Non-standard residues stand in square brackets, D forms with d. Residues, ends and D or L forms follow the SMILES beside them. Chains are numbered I, II in the order given. No end group written: not given here. Actinocin(9to1) = Cc1c2oc3c(C)ccc(C(=O)[*:1])c3nc-2c(C(=O)[*:2])c(N)c1=O; NMeV = CN[C@H](C(=O)O)C(C)C; Sar = CNCC(=O)O

Experiments:
MLO-Y4 osteocytic cells [1] = experiment: Quantification of apoptotic cells (nuclear morphology, nGFP) in MLO-Y4 osteocytic cells; assay type: cell-based, murine; settings: for effect on dexamethasone (glucocorticoid)-induced apoptosis: inhibitor added 30 minute before dexamethasone 10^−6 M, 6 hour treatment
Description: The murine long bone-derived osteocytic cell line MLO-Y4 was kindly provided by Dr. Lynda Bonewald (University of Missouri-Kansas City, Kansas City, Mo.). Cells were cultured in phenol red-free AMEM supplemented with 2.5% FBS, 2.5% bovine calf serum, 100 U/ml penicillin and 100 μg/ml streptomycin. Cells were plated at 1-2×10^4 cells/cm^2 on collagen type I (Sigma Chemical Co., St. Louis, Mo.) coated plates, as described previously (Kato,Y. et al., J. Bone Min.Res., 12:2014-2023 (1997)).
MLO-Y4 cells stably expressing nuclear green fluorescent protein (nGFP) were obtained using the retroviral vector containing the nGFP, provided by Dr. Charles O'Brien (University of Arkansas for Medical Sciences, Little Rock, Ark.). The SV40 large T antigen nuclear localization sequence (Kalderon,D., et al., Cell, 39:499-509 (1984)) was attached to the carboxy-terminus of the cDNA construct encoding nGFP and subcloned into the pLXSN retroviral vector (Clontech, Palo Alto, Calif.). The plasmid harboring the retroviral construct was transiently transfected into the packaging cell line Phoenix Eco (Grignani, F. et al., Cancer Res. 58:14-19 (1998)) using SuperFect (Qiagen, Santa Clarita, Calif.). Supernatants containing retroviral particles were collected 24-48 h after transfection, and used immediately to infect cell cultures. Subconfluent MLO-Y4 osteocytic cells were exposed to viral supernatants in the presence of 8 μg/ml polybrene for 8 h and then incubated in fresh culture medium for 16 hours. Subsequently, cells were exposed to the supernatants containing the viral particles once more before being trypsinized and plated at low density. Transduced cells were selected by culturing them in the presence of 400 μg/ml of geneticin (G418, Sigma Chemical Co., St. Louis, Mo.) for three weeks (Plotkin,L. I., et al., J. Clin. Invest. 104:1363-1374 (1999)).
Apoptosis was induced in semiconfluent cultures by treatment for the indicated times with the glucocorticoid, dexamethasone (10^−6 M, Sigma Chemical Co., St. Louis, Mo.) or with etoposide (50 μM, Sigma Chemical Co., St. Louis, Mo.). Inhibitors were added 30 minute before the addition of the pro-apoptotic agent at the following concentrations: the RNA synthesis inhibitor actinomycin D (2×10^−6M, Sigma Chemical Co., St. Louis, Mo.), the protein synthesis inhibitor cycloheximide (10^−6 M, Sigma Chemical Co., St. Louis, Mo.), the MEK inhibitor PD98059 (50 μM, New England Biolabs, Beverly, Mass.), the Src inhibitor PP1 (5 μM, BioSource International, Camarillo, Calif.), the p38 inhibitor SB203580 (10^−4 M, Sigma Chemical Co., St. Louis, Mo.), the P13K inhibitor wortmannin (30 nM, Sigma Chemical Co., St. Louis, Mo.), the JNK inhibitor SP600125 (3 μM, EMD Biosciences, Inc, San Diego, Calif.) or the caspase-3 inhibitor Asp-Glu-Val-Asp-aldehide (DEVD-CHO) (50 nM, Biomol Research Lab., Inc., Plymouth Meeting, Pa.).
Following the treatment with the pro-apoptotic agents, cells were fixed for 8 minutes with neutral buffer formalin and stored at 4° C. until analyzed.
Cells were transiently transfected using Lipofectamine Plus (Gibco BRL, Gaithersburg, Md.) as previously described (Plotkin,L. I. et. al., J. Biol.Chem. 277:8648-8657 (2002) and Kousteni, S. et al., Cell, 104:719-730 (2001)). Briefly, cells were cultured in the absence of serum or antibiotics for 3 hours in the presence of 20 μl/ml Plus reagent and 10 μl/ml Lipofectamine together with […] of each of the following DNA constructs: pCDNA3 vector (obtained from Clontech, Palo Alto, Calif.), wild type FAK (provided by Dr. Sandro Aruffo, Bristol-Myers Squibb Pharmaceutical Research Institute, Princeton, N.J. (Chan,P. Y. et al., Methods Mol Biol. 2000.;99.(1.):109.-25. 269:20567-20574 (1994)), or wild type Pyk2, kinase deficient Pyk2 mutant or autophosphorylation deficient Pyk2 mutant (provided by Dr. Wen-Cheng Xiong, University of Alabama at Birmingham, Birmingham, Ala. (Xiong,W. and Parsons,J. T., J Cell Biol 139:529-53(1997)).

MLO-Y4 osteocytic cells [2] = experiment: Quantification of cell detachment (number of cytoplasmic processes) in MLO-Y4 cells; assay type: cell-based, murine
Description: Apoptosis was induced in semiconfluent cultures by treatment for the indicated times with the glucocorticoid, dexamethasone (10^−6 M, Sigma Chemical Co., St. Louis, Mo.) or with etoposide (50 μM, Sigma Chemical Co., St. Louis, Mo.). […]
The effect of dexamethasone or etoposide on cell detachment was quantified by enumerating the number of cytoplasmic processes of MLO-Y4 cells expressing GFP. […]
Apoptosis and cell attachment were determined in the same cultures by examining nuclear morphology (FIG. 2A) and quantifying the number of cytoplasmic processes (FIG. 2B), respectively. Apoptosis was determined by examining nuclear fragmentation and chromatin condensation and cell detachment by quantifying the number of cytoplasmic processes in the same cells. […]

Compound	effect on dexamethasone (glucocorticoid)-induced apoptosis (MLO-Y4 osteocytic cells [1])	also measured
[Gd] [gadolinium]	abolished	
C[C@@H]1C[C@@H]([C@H](O)CC2CC(=O)NC(=O)C2)C(=O)[C@@H](C)C1 [cycloheximide]	dexamethasone was able to induce apoptosis	
COc1cc([C@@H]2c3cc4c(cc3[C@@H](O[C@@H]3O[C@@H]5CO[C@@H](C)O[C@H]5[C@H](O)[C@H]3O)[C@H]3COC(=O)[C@H]23)OCO4)cc(OC)c1O [etoposide]		apoptosis (nuclear fragmentation and chromatin condensation) (MLO-Y4 osteocytic cells [1]; 6 hours of treatment, dexamethasone 10^−6 M, etoposide 50 μM): induced apoptosis; apoptosis in cells overexpressing FAK (MLO-Y4 osteocytic cells [1]; transient transfection wild type FAK, 6 hours): not protected; apoptosis in cells overexpressing Pyk2 (MLO-Y4 osteocytic cells [1]; transient transfection wild type Pyk2, 6 hours): remained responsive; apoptosis in cells transfected with wild type Pyk2 vector (MLO-Y4 osteocytic cells [1]; transient transfection, co-transfected nGFP, 6 hours): exhibited apoptosis; number of cells exhibiting three or less cytoplasmic processes (cell attachment) (MLO-Y4 osteocytic cells [2]; dexamethasone: as early as after 1 h, etoposide: duration of the experiment): did not exhibit changes in cell attachment
Cc1c2oc3c(C)ccc(C(=O)N[C@@H]4C(=O)N[C@H](C(C)C)C(=O)N5CCC[C@H]5C(=O)N(C)CC(=O)N(C)[C@@H](C(C)C)C(=O)O[C@@H]4C)c3nc-2c(C(=O)N[C@@H]2C(=O)N[C@H](C(C)C)C(=O)N3CCC[C@H]3C(=O)N(C)CC(=O)N(C)[C@@H](C(C)C)C(=O)O[C@@H]2C)c(N)c1=O [actinomycin D] (I: T[dV]P[Sar][NMeV] / II: T[dV]P[Sar][NMeV]; ester I:1-I:C, II:1-II:C; linker I:N-II:N via Actinocin(9to1))	dexamethasone was able to induce apoptosis	
Asp-Glu-Val-Asp-aldehide (DEVD-aldehyde)	abolished	effect on dexamethasone-induced changes in cell attachment (MLO-Y4 osteocytic cells [2]; inhibitor added 30 minute before dexamethasone 10^−6 M): did not reverse
CC(=O)OCOC(=O)CN(CC(=O)OCOC(C)=O)c1ccccc1OCCOc1ccccc1N(CC(=O)OCOC(C)=O)CC(=O)OCOC(C)=O [BAPTA-AM]	abolished	
C/C=C(/C)C(=O)O[C@H]1C(C)=C2[C@H]([C@@H]1OC(=O)CCCCCCC)[C@@](C)(OC(C)=O)C[C@H](OC(=O)CCC)[C@@]1(O)[C@H]2OC(=O)[C@@]1(C)O [thapsigargin]	had no effect	
